Experimental data reported in US20100075957A1, “AMINODIHYDROTHIAZINE DERIVATIVES SUBSTITUTED WITH A CYCLIC GROUP” (SHIONOGI & CO., LTD., priority 2007, published 2010).
pIC50: −log10 of the molar value. Where two headings read alike, the source gives them in different places.

Target: T1, Recombinant human BACE-1 (Homo sapiens, UniProt P56817)
T1 construct: purchased R&D Systems
Assay: Assay of β-secretase-inhibiting activity;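 further: substrate is a peptide carrying biotin and europium cryptate, after the enzyme reaction, Streptavidin-XL665 is added and incubated 1 h at 30 °C before fluorescence reading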
Type: biochemical
Conditions: Recombinant human BACE-1 7.4 nM, substrate peptide 18 nM, pH 5.0, 30° C., 3 hours

[1] = time-resolved fluorescence ratio 665/620, read-out: IC50 values (50% inhibitory concentration against the enzymatic activity)

T1 sequence (P56817 46-501): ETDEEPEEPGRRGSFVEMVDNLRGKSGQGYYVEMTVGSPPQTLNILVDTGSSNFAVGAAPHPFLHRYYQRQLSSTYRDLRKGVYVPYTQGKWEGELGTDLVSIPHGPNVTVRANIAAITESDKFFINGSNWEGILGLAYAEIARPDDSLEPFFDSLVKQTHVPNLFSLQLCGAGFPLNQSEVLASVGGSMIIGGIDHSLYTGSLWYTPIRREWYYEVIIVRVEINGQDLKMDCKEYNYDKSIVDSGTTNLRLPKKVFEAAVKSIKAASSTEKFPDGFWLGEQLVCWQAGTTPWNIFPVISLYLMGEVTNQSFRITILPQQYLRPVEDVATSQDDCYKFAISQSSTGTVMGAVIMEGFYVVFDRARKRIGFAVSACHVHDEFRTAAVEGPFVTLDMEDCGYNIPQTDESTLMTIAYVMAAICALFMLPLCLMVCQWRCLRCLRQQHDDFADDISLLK

Structure (SMILES)	pIC50 [1]	further results
Cn1cc(-c2cnc(C(=O)Nc3ccc(F)c([C@]4(C)CCSC(N)=N4)c3)cn2)cn1 [Compound 494]	–	pIC50 (Table 140, read-out: IC50): 7.52
C[C@@]1(c2cncc(NC(=O)c3ncc(C(F)(F)F)cc3Cl)c2)CCSC(N)=N1 [Compound 574]	≥ 6.00	–
C[C@@]1(c2cc(NC(=O)c3ccc(O)cn3)ccc2F)CCSC(N)=N1 [Compound 119]	≥ 6.00	–
C[C@@]1(c2cccc(NC(=O)c3ccc(Cl)cn3)n2)CCSC(N)=N1 [Compound 599]	–	pIC50 (Table 140, read-out: IC50): 7.52
COc1cc(C(=O)Nc2cccc([C@]3(C)CCSC(N)=N3)c2)n(C)n1 [Compound 18]	≥ 6.00	–
C[C@@]1(c2cc(NC(=O)c3coc(C(F)(F)F)n3)ccc2F)CCSC(N)=N1 [Compound 669]	–	pIC50 (Table 141, read-out: IC50): 8.00
C[C@@]1(c2cc(NC(=O)c3cnc(-n4ccc(C(F)(F)F)n4)cn3)ccc2F)CCSC(N)=N1 [Compound 580]	–	pIC50 (Table 140, read-out: IC50): 6.89
C[C@@]1(c2cc(NC(=O)c3nccnc3C(N)=O)ccc2F)CCSC(N)=N1 [Compound 157]	≥ 6.00	–
Cc1nc(-c2ccc(C(=O)Nc3ccc(F)c([C@]4(C)CCSC(N)=N4)c3)cc2)no1 [Compound 531]	≥ 6.00	–
C[C@@]1(c2cncc(NC(=O)c3cnc(Cl)cn3)c2)CCSC(N)=N1 [Compound 597]	–	pIC50 (Table 140, read-out: IC50): 7.15
C[C@@]1(c2cc(NC(=O)c3cn4ccccc4n3)ccc2F)CCSC(N)=N1 [Compound 502]	–	pIC50 (Table 140, read-out: IC50): 7.40
Cc1cnc(C(=O)Nc2ccc(F)c([C@@]3(C)N=C(N)SCC3(C)C)c2)cn1 [Compound 649]	≥ 6.00	–
COCCOc1cnc(C(=O)Nc2cc([C@]3(C)CCSC(N)=N3)c3oc(C)cc3c2)cn1 [Compound 465]	≥ 6.00	–
Cc1ccsc1C(=O)Nc1cncc([C@]2(C)CCSC(N)=N2)c1 [Compound 487]	≥ 6.00	–
C[C@@]1(c2cc(NC(=O)c3ccc(OCC#CCO)cn3)ccc2F)CCSC(N)=N1 [Compound 567]	≥ 6.00	–
CC#CC(=O)Nc1cccc([C@]2(C)CCSC(N)=N2)c1 [Compound 65]	–	pIC50 (Table 139, read-out: IC50): 6.14
COCCOc1cnc(C(=O)Nc2cnc(Cl)c([C@]3(C)CCSC(N)=N3)c2)cn1 [Compound 583]	≥ 6.00	–
Cc1cnc(C(=O)Nc2ccc(Br)c(C3(C)CCSC(N)=N3)c2)cn1 (stereo not shown) [Compound 492]	≥ 6.00	–
C[C@@]1(c2cccc(NC(=O)c3cnc(OCC4CCO4)cn3)c2)CCSC(N)=N1 (stereo partly shown) [Compound 94]	–	pIC50 (Table 139, read-out: IC50): 6.77
CC#CCOc1cnc(C(=O)Nc2cccc([C@]3(C)CCSC(N)=N3)c2)cn1 [Compound 91]	≥ 6.00	–
Cc1nc(C(=O)Nc2cnc(Cl)c([C@]3(C)CCSC(N)=N3)c2)co1 [Compound 584]	≥ 6.00	–
C[C@@]1(c2cc(NC(=O)CCc3cccc(N)c3)ccc2F)CCSC(N)=N1 [Compound 150]	–	pIC50 (Table 139, read-out: IC50): 5.61
C[C@@]1(c2cncc(NC(=O)c3ncc(C(F)(F)F)cc3F)c2)CCSC(N)=N1 [Compound 646]	≥ 6.00	–
COc1cnc(C(=O)Nc2ccc(F)c([C@@]3(C)N=C(N)SC[C@@H]3OCc3ccccc3)c2)cn1 [Compound 683]	≥ 6.00	–
Cc1nc(C(=O)Nc2ccc(F)c([C@@]3(C)N=C(N)SCC3(F)F)c2)co1 [Compound 664]	–	pIC50 (Table 141, read-out: IC50): 7.70

Structure (SMILES)	pIC50 [1]	further results
COCCOCCOc1cnc(C(=O)Nc2cccc([C@]3(C)CCSC(N)=N3)c2)cn1 [Compound 90]	≥ 6.00	–
CC(C)=NOc1cnc(C(=O)Nc2ccc(F)c([C@]3(C)CCSC(N)=N3)c2)cn1 [Compound 125]	≥ 6.00	–
CC/C=C\COc1cnc(C(=O)Nc2cccc([C@]3(C)CCSC(N)=N3)c2)cn1 [Compound 108]	≥ 6.00	–
COc1cnc(C(=O)Nc2cncc([C@]3(C)CC(C)(C)SC(N)=N3)c2)c(N)n1 [Compound 558]	≥ 6.00	–
C[C@@]1(c2cc(NC(=O)c3cccc(F)n3)ccc2F)CCSC(N)=N1 [Compound 587]	≥ 6.00	–
Cc1cc(C(=O)Nc2ccc(F)c([C@]3(C)CCSC(N)=N3)c2)oc1C [Compound 529]	≥ 6.00	–
Cc1ncsc1C(=O)Nc1ccc(F)c([C@]2(C)CCSC(N)=N2)c1 [Compound 506]	≥ 6.00	–
C[C@@]1(c2ccnc(NC(=O)c3ccc(Cl)cn3)c2)CCSC(N)=N1 [Compound 598]	–	pIC50 (Table 140, read-out: IC50): 7.52
CCc1nc(C(=O)Nc2ccc(F)c([C@]3(C)CCSC(N)=N3)c2)co1 [Compound 670]	≥ 6.00	–
COCCOc1cnc(C(=O)Nc2cccc([C@]3(C)CCSC(N)=N3)n2)cn1 [Compound 592]	≥ 6.00	–
Cc1ccoc1C(=O)Nc1ccc(F)c([C@]2(C)CCSC(N)=N2)c1 [Compound 518]	≥ 6.00	–
Cc1cnc(C(=O)Nc2cncc([C@]3(C)CCSC(N)=N3)c2)cn1 [Compound 550]	≥ 6.00	–
C[C@@]1(c2cc(NC(=O)COc3ccccc3O)ccc2F)CCSC(N)=N1 [Compound 149]	–	pIC50 (Table 139, read-out: IC50): 5.03
C#CCOc1cnc(C(=O)Nc2cncc([C@]3(C)CC(C)(C)SC(N)=N3)c2)cn1 [Compound 561]	≥ 6.00	–
COCC#CCOc1ccc(C(=O)Nc2ccc(F)c([C@]3(C)CCSC(N)=N3)c2)nc1 [Compound 571]	≥ 6.00	–
C#CCOc1cnc(C(=O)Nc2ccc(F)c([C@]3(C)CC(C)(C)SC(N)=N3)c2)cn1 [Compound 692]	≥ 6.00	–
CC#CCNc1cnc(C(=O)Nc2cccc([C@]3(C)CCSC(N)=N3)c2)cn1 [Compound 123]	≥ 6.00	–
COc1cnc(C(=O)Nc2ccnc([C@]3(C)CCSC(N)=N3)c2)c(N)n1 [Compound 691]	≥ 6.00	–
C[C@@]1(c2cccc(NC(=O)c3ccc(O)cn3)c2)CCSC(N)=N1 [Compound 110]	≥ 6.00	–
COc1cscc1C(=O)Nc1ccc(F)c([C@]2(C)CCSC(N)=N2)c1 [Compound 524]	≥ 6.00	–
Cc1nc(C(=O)Nc2ccnc([C@]3(C)CCSC(N)=N3)c2)co1 [Compound 612]	≥ 6.00	–
CC1(C)C[C@@](C)(c2cncc(NC(=O)c3cnc(OCCF)cn3)c2)N=C(N)S1 [Compound 568]	≥ 6.00	–
C[C@@]1(c2cncc(NC(=O)c3cnc(OCCF)cn3)c2)CCSC(N)=N1 [Compound 557]	≥ 6.00	–
C[C@@]1(c2cccc(NC(=O)c3cnc(Cl)cn3)c2)CCSC(N)=N1 [Compound 58]	≥ 6.00	–
